Experimental data as given in article PMC10644342, “Improved Antibacterial Activity of 1,3,4-Oxadiazole-Based Compounds That Restrict Staphylococcus aureus Growth Independent of LtaS Function” (ACS Infectious Diseases, 2023).

Experiments:
S. aureus = test system: S. aureus; set-up: method as in PMID 23401520; conditions: incubation for 3–4 days; cited from earlier work
[1] = test system: MRSA strains LAC and EMRSA-15; assay: Serial passage resistance study; format: cell-based, Staphylococcus aureus; conditions: 25 days serial passage, after 14 days, then stable for 11 days
Experimental: plotted against time following 18 hours of growth at 37 °C. The icons represent the mean of three biological replicates.
Supplementary Materials and Methods
Synergistic activity with clinically relevant antibiotics
The synergistic ability of 1771 and 13 was achieved using the chequerboard micro-broth dilution method. Antibiotic partners tested included: oxacillin, daptomycin, vancomycin, gentamicin, and linezolid with starting concentrations of 256 µg/ml, 8 µg/ml, 8 µg/ml, 4 µg/ml, and 8 µg/ml respectively. Overnight cultures were sub-cultured 1:200 in fresh MHB and grown to optical density of OD600nm of 0.5-0.6 and prepared according to the MIC analysis. Following an 18 h incubation at 37 °C the sum of the fractional inhibitory […]
using the equation ΣFIC = FICA +FICB = (MICA in combination with B/MICA) + (MICB in combination with A/MICB). The resulting value was interpreted according to the following rules: synergistic (FIC ≤ 0.5), additive (FIC >0.5, <1) or indifferent (FIC ≥ 1 <4).
Serial passage resistance study
A serial passage in 1771 was performed using MRSA strains, LAC and EMRSA-15. For this assay, 15 ml tubes were filled with 3 ml of MHB and varying concentrations of 1771. The tubes containing either LAC or EMRSA-15 were incubated at 37 °C for 24 h before each passage. […]

LTA = test system: LTA; set-up: method as in PMID 23401520; conditions: cited from earlier work
E. coli strain K12 = test system: E. coli strain K12; set-up: method as in PMID 23401520; conditions: initial small-molecule library screen; cited from earlier work
LtaS = test system: LtaS; set-up: method as in PMID 29300473; conditions: LtaS in artificial liposomes; cited from earlier work

O=C(COC(=O)Cc1coc2ccc3ccccc3c12)Nc1nnc(-c2ccccc2)o1 [Compound 1771, 2-Oxo-2-((5-phenyl-1,3,4-oxadiazol-2-yl)amino)ethyl 2-(Naphtho[2,1-b]furan-1-yl)acetate, reference compound]
resistant mutant selection (S. aureus): did not result in resistant mutant selection | change of MIC on serial passage [1]: increased twofold | LTA signal (LTA): dose-dependent reduction in the LTA signal | effect on the growth of Escherichia coli (E. coli strain K12): no effect on the growth | inhibition of LtaS polymerization activity (LtaS): did not show inhibitory activity
